1 compound from patent US11672802B2, “Induction of immune tolerance by using methotrexate” (Genzyme Corporation, priority 2011, dated 2023) can be followed below.

In the test the test system is anti-rhGAA IgG. The test can be described thus: Anti-rhGAA IgG ELISA titers in mice treated with rhGAA. It counts as in vivo. The note with it: for anti-rhGAA titers: IL-10 knockout animals, rhGAA and methotrexate. On the procedure: Recombinant human alglucosidase alfa (rhGAA, marketed by Genzyme Corp. as Myozyme®) was used as a formulated drug product. Mice were treated weekly with 20 mg/kg of rhGAA by bolus tail vein injection unless stated differently. All mice were treated prophylactically with 5 to 30 mg/kg diphenhydramine (Baxter Healthcare Corporation, Deerfield, Ill.) intraperitoneally prior to rhGAA administration. Control animals were treated intravenously with either sterile 0.9% saline or rhGAA-formulation buffer. Methotrexate treatment
Mice were bled 4-6 days following rhGAA treatment and specific IgG was measured by ELISA. […] Endpoint titers were defined as the reciprocal of the sample dilution resulting in an absorbance value of 0.2 using Softmax software (Molecular Devices, Sunnyvale, Calif.).
C57Bl/6 mice were treated with one 20 mg/kg intravenous dose of rhGAA (Genzyme Corporation), 3 consecutive intraperitoneal doses of 5 mg/kg methotrexate (APP Pharmaceuticals, LLC), and either 1D11 or 13C4 at 5 mg/kg (Genzyme Corporation) for 3 doses every other day. Methotrexate, 1D11, and 13C4 treatment commenced with rhGAA injections. Spleens were collected 7 days after treatment initiation and were processed as described above for B cells, culture and flow analysis. Additionally, rhGAA titer data was obtained by treating animals as described above, with rhGAA dosed weekly over 12 weeks, methotrexate dosed for either 1 or 3 cycles, and 1D11 or 13C4 dosed 3 times a week every other day for 12 weeks. Serum samples were collected every 2 weeks for ELISA analysis.
(In an ELISA, binding on a coated surface is turned into a signal by an enzyme label.)

For the compound `CN(Cc1cnc2nc(N)nc(N)c2n1)c1ccc(C(=O)N[C@@H](CCC(=O)O)C(=O)O)cc1` [methotrexate, Methotrexate], the anti-rhGAA responses result (C57BL/6 wild-type, rhGAA and three cycles methotrexate, weeks 4, 6 and 9) is given as “decreased”. Further, the anti-rhGAA titers result by setting is: (week 9) “slight decrease”; (weeks 4 and 6) “not decreased”. The “duration of control of anti-rhGAA responses” value (single cycle of three daily doses of 5 mg/kg methotrexate at week 1) is on record as “at least 20 weeks”. Also, the “animals exhibiting high anti-rhGAA titers” value (week 6, rhGAA alone, rhGAA + methotrexate, or with 5 mg/kg 1D11 or 13C4) was “none”.
